Experimental data from PubChem BioAssay AID2060614 (Molecular Pharmacology Branch, DTP, NCI, 2025).

Test system: 598228-144-R-J1-PDC complex spheroids, viability
Assay: Anticancer human tumor 598228-144-R-J1-PDC patient-derived serous endometrial adenocarcinoma cell line growth inhibition [CLK]
Conditions: for IC50: curve of first compound; for viability, T/C: stronger effect = lower value
How it was run: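 Multi-cell-type spheroids combined patient-derived tumor cells with HUVEC endothelial cells and human mesenchymal stem cells. Paired agents were dosed in half-log steps down from about clinical Cmax, or from 10 microM where Cmax was unknown.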

[1] = second compound 0.0316 µM, first compound 0.0316 µM
[2] = second compound 0.0316 µM, first compound 0.1 µM
[3] = second compound 0.0316 µM, first compound 0.316 µM
[4] = second compound 0.0316 µM, first compound 1 µM
[5] = second compound 0.0316 µM, first compound 3.16 µM
[6] = second compound 0.0316 µM, first compound 10 µM
[7] = second compound 0.1 µM, first compound 0.0316 µM
[8] = second compound 0.1 µM, first compound 0.1 µM
[9] = second compound 0.1 µM, first compound 0.316 µM
[10] = second compound 0.1 µM, first compound 1 µM
[11] = second compound 0.1 µM, first compound 3.16 µM
[12] = second compound 0.1 µM, first compound 10 µM
[13] = second compound 0.316 µM, first compound 0.0316 µM
[14] = second compound 0.316 µM, first compound 0.1 µM
[15] = second compound 0.316 µM, first compound 0.316 µM
[16] = second compound 0.316 µM, first compound 1 µM
[17] = second compound 0.316 µM, first compound 3.16 µM
[18] = second compound 0.316 µM, first compound 10 µM
[19] = second compound 1 µM, first compound 0.0316 µM
[20] = second compound 1 µM, first compound 0.1 µM
[21] = second compound 1 µM, first compound 0.316 µM
[22] = second compound 1 µM, first compound 1 µM
[23] = second compound 1 µM, first compound 3.16 µM
[24] = second compound 1 µM, first compound 10 µM
[25] = second compound 3.16 µM, first compound 0.0316 µM
[26] = second compound 3.16 µM, first compound 0.1 µM
[27] = second compound 3.16 µM, first compound 0.316 µM
[28] = second compound 3.16 µM, first compound 1 µM
[29] = second compound 3.16 µM, first compound 3.16 µM
[30] = second compound 3.16 µM, first compound 10 µM
[31] = second compound 10 µM, first compound 0.0316 µM
[32] = second compound 10 µM, first compound 0.1 µM
[33] = second compound 10 µM, first compound 0.316 µM
[34] = second compound 10 µM, first compound 1 µM
[35] = second compound 10 µM, first compound 3.16 µM
[36] = second compound 10 µM, first compound 10 µM
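Also: spheroids exposed to compounds for seven days before readout.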
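For viability, T/C in this document: 100% = DMSO vehicle control wells.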

C=CC(=O)N1CCN(c2nc(=O)n(-c3c(C)ccnc3C(C)C)c3nc(-c4c(O)cccc4F)c(F)cc23)C(C)C1 (stereo unspecified) + CNC(=O)c1ccc(Nc2nc(OC3CCCC3)c3c(-c4ccc5nc(C)oc5c4)c[nH]c3n2)c(OC)c1 showed an IC50 (second compound 0.0316 µM) of over 10 µM, an IC50 (second compound 0.1 µM) of over 10 µM and an IC50 (second compound 0.316 µM) of over 10 µM. The IC50 (second compound 1 µM) was over 10 µM, the IC50 (second compound 3.16 µM) was over 10 µM and the IC50 (second compound 10 µM) was over 10 µM. It also gave a viability, T/C [1] of 97.9%, a viability, T/C [2] of 110% and a viability, T/C [3] of 101%. For the same compound, the viability, T/C [4] was 123%, the viability, T/C [5] was 135% and the viability, T/C [6] was 111%. For the same compound, the viability, T/C [7] was 100%, the viability, T/C [8] was 111% and the viability, T/C [9] was 117%. It also gave a viability, T/C [10] of 114%, a viability, T/C [11] of 127% and a viability, T/C [12] of 118%. The viability, T/C [13] was 120%, the viability, T/C [14] was 100% and the viability, T/C [15] was 110%. For the same compound, the viability, T/C [16] was 127%, the viability, T/C [17] was 120% and the viability, T/C [18] was 111%. The viability, T/C [19] was 102%, the viability, T/C [20] was 96.7% and the viability, T/C [21] was 109%. For the same compound, the viability, T/C [22] was 137%, the viability, T/C [23] was 117% and the viability, T/C [24] was 99.3%. For the same compound, the viability, T/C [25] was 99.8%, the viability, T/C [26] was 86.1% and the viability, T/C [27] was 97.5%. The viability, T/C [28] was 109%, the viability, T/C [29] was 116% and the viability, T/C [30] was 85.3%. It also gave a viability, T/C [31] of 87.6%, a viability, T/C [32] of 88.7% and a viability, T/C [33] of 96.4%. The viability, T/C [34] was 104%, the viability, T/C [35] was 101% and the viability, T/C [36] was 77.3%.

With CCCS(=O)(=O)Nc1ccc(F)c(C(=O)c2c[nH]c3ncc(-c4ccc(Cl)cc4)cc23)c1F + CNC(=O)c1ccc(Nc2nc(OC3CCCC3)c3c(-c4ccc5nc(C)oc5c4)c[nH]c3n2)c(OC)c1 the IC50 (second compound 0.0316 µM) was 9.99 µM, the IC50 (second compound 0.1 µM) was over 10 µM and the IC50 (second compound 0.316 µM) was 9.64 µM. The IC50 (second compound 1 µM) was over 10 µM, the IC50 (second compound 3.16 µM) was over 10 µM and the IC50 (second compound 10 µM) was 9.06 µM. The viability, T/C [1] was 117%, the viability, T/C [2] was 104% and the viability, T/C [3] was 113%. For the same compound, the viability, T/C [4] was 105%, the viability, T/C [5] was 93.5% and the viability, T/C [6] was 49.5%. The viability, T/C [7] was 102%, the viability, T/C [8] was 101% and the viability, T/C [9] was 102%. The viability, T/C [10] was 111%, the viability, T/C [11] was 115% and the viability, T/C [12] was 51.6%. The viability, T/C [13] was 99.4%, the viability, T/C [14] was 105% and the viability, T/C [15] was 87.2%. The viability, T/C [16] was 100%, the viability, T/C [17] was 83.5% and the viability, T/C [18] was 48.6%. The viability, T/C [19] was 96.5%, the viability, T/C [20] was 104% and the viability, T/C [21] was 94.8%. It also gave a viability, T/C [22] of 99.3%, a viability, T/C [23] of 88.4% and a viability, T/C [24] of 57.1%. For the same compound, the viability, T/C [25] was 86.7%, the viability, T/C [26] was 83.9% and the viability, T/C [27] was 91.7%. For the same compound, the viability, T/C [28] was 102%, the viability, T/C [29] was 83.3% and the viability, T/C [30] was 55%. It also gave a viability, T/C [31] of 89%, a viability, T/C [32] of 82.5% and a viability, T/C [33] of 92.5%. The viability, T/C [34] was 99.6%, the viability, T/C [35] was 67.5% and the viability, T/C [36] was 48.4%.

For COC1C=CCC(C)C(C)S(=O)(=O)NC(=O)c2ccc3c(c2)N(CC2CCC21)CC1(CCCc2cc(Cl)ccc21)CO3 (stereo unspecified) + CNC(=O)c1ccc(Nc2nc(OC3CCCC3)c3c(-c4ccc5nc(C)oc5c4)c[nH]c3n2)c(OC)c1, the IC50 (second compound 0.0316 µM) was 3.22 µM, the IC50 (second compound 0.1 µM) was 2.59 µM and the IC50 (second compound 0.316 µM) was 1.13 µM. It also gave an IC50 (second compound 1 µM) of 2.72 µM, an IC50 (second compound 3.16 µM) of 2.01 µM and an IC50 (second compound 10 µM) of 2.81 µM. It also gave a viability, T/C [1] of 111%, a viability, T/C [2] of 108% and a viability, T/C [3] of 81.7%. It also gave a viability, T/C [4] of 69.3%, a viability, T/C [5] of 54.9% and a viability, T/C [6] of 25.3%. It also gave a viability, T/C [7] of 105%, a viability, T/C [8] of 96.9% and a viability, T/C [9] of 61.7%. The viability, T/C [10] was 70.6%, the viability, T/C [11] was 59.6% and the viability, T/C [12] was 22.9%. The viability, T/C [13] was 102%, the viability, T/C [14] was 91.1% and the viability, T/C [15] was 60.5%. The viability, T/C [16] was 53.9%, the viability, T/C [17] was 42.5% and the viability, T/C [18] was 31.5%. It also gave a viability, T/C [19] of 99%, a viability, T/C [20] of 82.8% and a viability, T/C [21] of 65.9%. It also gave a viability, T/C [22] of 57.8%, a viability, T/C [23] of 55.5% and a viability, T/C [24] of 37.2%. The viability, T/C [25] was 92.4%, the viability, T/C [26] was 78.8% and the viability, T/C [27] was 67.3%. It also gave a viability, T/C [28] of 54.9%, a viability, T/C [29] of 55.3% and a viability, T/C [30] of 25.1%. The viability, T/C [31] was 86.5%, the viability, T/C [32] was 83.8% and the viability, T/C [33] was 67.2%. The viability, T/C [34] was 51.9%, the viability, T/C [35] was 58.3% and the viability, T/C [36] was 35.4%.
